Structures are written as SMILES.

A short description of the series: gradient 5% acetonitrile 3 min, to 50% in 2 min, to 85% in 15 min, held 3 min, 100 µL/min. Particulars: column: Zorbax Extend-C18 2.1 x 50 mm; eluents: water / acetonitrile, 0.1% formic acid. The procedure, abridged:
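Values are retention times taken from adduct peaks that software picked and an analyst inspected. The pure standards were run as mixtures of ~100 molecules on HPLC linked to a quadrupole time-of-flight mass spectrometer, in positive and negative ionization mode. A Zorbax Extend-C18 column (2.1 × 50 mm, 1.8 μm) was used at 100 μL/min with water and acetonitrile, each including 0.1% formic acid.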
In turn, `CCc1ccc(NC(=O)c2cc(C)n3nccc3n2)cc1` came in with an RP-LC retention time of 1030 s. In turn, `O=C(NC(Cc1ccccc1)c1nnc(N2CCSCC2)o1)C1CCCC1` (centres undefined) had an RP-LC retention time of 806 s.

`Cn1ncc(N2CCCC(C(=O)NCc3ccc(F)c(Cl)c3)C2)cc1=O` (centres undefined) displayed an RP-LC retention time of 726 s. With `Cn1nc(C(=O)N2CCCC(C(=O)NC3CC3)C2)c2c1CCN(C(=O)c1cccc(F)c1)C2` (centres undefined), the RP-LC retention time was determined as 646 s. The value for `COC(=O)c1ccc2c(=O)n(Cc3ccccc3)c(N3CCOCC3)nc2c1` was 953 s; that for `COC(=O)c1cn(CC(=O)Nc2ccc(Br)cc2F)c2nc(C)ccc2c1=O` was 775 s. Compound `Cc1noc(-c2ccc(OC3CN(C(=O)C(C)Oc4ccccc4)C3)cc2)n1` (centres undefined) showed an RP-LC retention time of 899 s. In the case of `CCn1cc(S(=O)(=O)Nc2ccc(F)cc2F)c2cccnc21`, the RP-LC retention time was determined as 814 s. The compound `COc1cccc(C(=O)N2CCCn3nc(-c4cccs4)cc3C2)c1OC` gave an RP-LC retention time of 798 s. `COc1ccc(CNC(=O)C2CCN(c3cc(N4CCSCC4)ncn3)CC2)cc1` displayed an RP-LC retention time of 656 s.

Take `CCCN1CCN(C(=O)C(C)C2CCN(C(=O)c3[nH]c(C)c(C(=O)OCC)c3C)CC2)CC1` (centres undefined): the RP-LC retention time stood at 620 s. For the compound `O=C(N1CCc2ccccc2C1)C1(c2ccc(F)cc2)CC1`, the RP-LC retention time was determined as 905 s. As for `COc1ccc(-c2nnc(-c3ccc(Cl)c(S(=O)(=O)N4CCC(C)CC4)c3)o2)cc1OC`, the RP-LC retention time came to 1180 s.

Turning to `CN1C(=O)c2cc(S(=O)(=O)Nc3ccc4c(c3)OCCO4)ccc2Oc2cccnc21`, the RP-LC retention time was determined as 826 s. For `Cc1nn(CC(=O)NC2CCCCCC2)c(=O)c2nn(-c3ccccc3)c(C)c12`, the RP-LC retention time was found to be 822 s.

Regarding `CCCn1cc(CCNS(=O)(=O)c2c(C)cc(C)cc2C)c2cccnc21`, the RP-LC retention time was 962 s. Turning to `O=C(CN1CCN(Cc2cccc(Cl)c2)C1=O)NCCc1cccs1`, the RP-LC retention time was determined as 823 s. The compound `CN(CCc1noc(COc2ccc(Cl)cc2Cl)n1)C(=O)c1ccco1` registered an RP-LC retention time of 898 s. Turning to `Cc1ccc(NC(=O)C2CCc3nc(N4CCOCC4)ncc3C2)cc1F` (centres undefined), the RP-LC retention time stood at 735 s. The compound `CCc1nccn1Cc1noc(-c2ccc(F)cc2)n1` registered an RP-LC retention time of 615 s. The value for `CC(C)Oc1ccccc1CN1C[C@@H](CO)[C@H](c2ccncc2)C1` was 569 s; that for `Cc1ccc(CNC(=O)C2(C)CCCN(C(=O)c3cccc(Br)c3)C2)cc1` (centres undefined) was 960 s; that for `CCC(C)NC(=O)N(C)CCc1noc(COc2ccc(Cl)cc2)n1` (centres undefined) was 869 s. `O=C(NCC1CCN(Cc2cccs2)CC1)C(=O)Nc1ccc(C(F)(F)F)cc1`: the RP-LC retention time worked out at 603 s. Compound `CCc1noc(NC(C)=O)c1-c1ccc(OC)c(S(=O)(=O)N2CCCCCC2)c1` showed an RP-LC retention time of 817 s. Under `Cc1cccc(-c2noc(CN3C(=O)COc4cc(C)ccc43)n2)c1` stands 1110 s; under `CCc1nc(-c2csc(S(=O)(=O)N3CCC(C(=O)NC4CC4)CC3)c2)no1`, 766 s; under `O=C(Cc1csc2nc(-c3cccc(Br)c3)cn12)N1CCc2ccccc21`, 1040 s.

For `CN(C)c1ccc(-c2nc3cnccn3c2Nc2ccc3c(c2)OCO3)cc1`, the RP-LC retention time is 737 s. The compound `CCc1ccc(-c2cc3c(=O)n(CC(=O)NCC4CCCN4CC)ncn3n2)cc1` (centres undefined) displayed an RP-LC retention time of 689 s. The compound `O=S1(=O)N=CN(c2ccc3c(c2)CCC3)c2ncccc21` yielded an RP-LC retention time of 862 s. The value for `CN1C(=O)Cc2ccccc2C1C(=O)NCc1ccccc1F` (centres undefined) was 713 s. Take `CCn1nccc1C(=O)N1C[C@@H]2CCCN3CCC[C@@H]([C@H]23)[C@H]1CCCC(=O)N1CCOCC1`: the RP-LC retention time was determined as 572 s. As for `COc1cc(-c2nnc(-c3cccc(S(=O)(=O)N4CCC(C)CC4)c3)o2)cc(OC)c1OC`, the RP-LC retention time was found to be 755 s. On to `Cc1cc2c(=O)n(CC(=O)Nc3cccc(Cl)c3)ccc2s1`, for which the RP-LC retention time is 832 s. `CC1CCN(c2nn(CC(=O)Nc3cccc(C(C)C)c3)c(=O)c3ccccc23)CC1`: the RP-LC retention time worked out at 1320 s. Under `CC1Cn2cc(C(=O)NCCN3CCN(C)CC3)c(=O)c3c(Cl)ccc(c32)O1` (centres undefined) stands 590 s; under `Cc1ccccc1NS(=O)(=O)c1cc2c(=O)n(C)ncn2c1`, 801 s; under `CCCS(=O)(=O)N1CCC(F)(c2nc(-c3ccccc3)no2)CC1`, 1080 s.

`CCc1ccccc1NC(=O)Cn1nc2cc(C)nc(-c3ccccc3)n2c1=O` displayed an RP-LC retention time of 854 s. The compound `CCc1noc(NC(C)=O)c1-c1ccc(C)c(S(=O)(=O)N(C)c2ccc(C)cc2)c1` came in with an RP-LC retention time of 861 s. Turning to `Cc1noc(C)c1S(=O)(=O)N1CCCn2nc(-c3cccs3)cc2C1`, the RP-LC retention time was found to be 880 s. `CCCCN(CCCC)C(=O)CN1C[C@H](c2ccc3c(c2)OCO3)[C@@H](C(=O)O)[C@@H]1c1ccc(OC)cc1` displayed an RP-LC retention time of 974 s. In turn, `COC(=O)C1=CN(c2ccc(F)c(F)c2)c2ccc(F)cc2S1(=O)=O` yielded an RP-LC retention time of 854 s. Take `CCCN(CC1CCOC1)C(=O)Nc1cccc(C)c1C` (centres undefined): the RP-LC retention time turned out to be 818 s. Under `CCOC(=O)c1ccccc1NC(=O)N1CCC(C(=O)NCc2csc(-c3ccccc3)n2)CC1` stands 993 s; under `CCCNC(=O)C1CCN(c2cc(SCC(=O)Nc3ccc(OC)cc3)ncn2)CC1`, 692 s; under `CCOc1ccccc1NS(=O)(=O)c1ccc2c(c1)C(=O)N(C)c1ncccc1O2`, 941 s.

For `Cc1cccc(NC(=O)C2CCCN(S(=O)(=O)c3c[nH]c(C(=O)N4CCCCCC4)c3)C2)c1C` (centres undefined), the RP-LC retention time amounted to 883 s.

The compound `COc1nccnc1N1CCC(NC(=O)Cc2c(C)noc2C)C1` (centres undefined) had an RP-LC retention time of 596 s. In turn, `Cc1noc(C2CN(C(=O)NC(C)(C)C)CC23CCOCC3)n1` (centres undefined) yielded an RP-LC retention time of 670 s. In turn, `COc1cc(NS(=O)(=O)c2ccc(-c3c(C)noc3C)cc2)cc(OC)c1OC` returned an RP-LC retention time of 856 s. Compound `COc1cc2c3c(n(C)c(=O)c2cc1OC)-c1cc2c(cc1C3=O)OCO2` gave an RP-LC retention time of 840 s. In turn, `O=C(Nc1ccccc1Br)C1CCCN(C(=O)c2ccccc2F)C1` (centres undefined) showed an RP-LC retention time of 860 s. On to `CCOC(=O)CNC(=O)NCc1cccn1Cc1ccccc1F`, for which the RP-LC retention time turned out to be 772 s.

In turn, `CCCCn1c(=O)c2ccccc2n(Cc2nc(-c3ccccc3)no2)c1=O` showed an RP-LC retention time of 1140 s. Compound `CCOc1ccn(-c2ccc(F)cc2)c(=O)c1C(=O)Nc1ccc(Oc2ccnc(N)c2Cl)c(F)c1` yielded an RP-LC retention time of 700 s. Turning to `CCOC(=O)c1c(C)n(C)c2ccc(OC(C)C(=O)OC)cc12` (centres undefined), the RP-LC retention time was determined as 894 s. `COC(=O)[C@H](Cc1c[nH]c2ccccc12)NC(=O)c1cccc(-n2cnnn2)c1` returned an RP-LC retention time of 753 s. Compound `CCNC(=O)CN1C(=O)C2CCCCN2c2ccc(S(=O)(=O)N(CC)CC)cc21` (centres undefined) came in with an RP-LC retention time of 804 s. In turn, `COc1ccc(NC(=O)C2CCN(S(=O)(=O)c3ccc4c(c3)CCCC(=O)N4)CC2)c(OC)c1` showed an RP-LC retention time of 741 s. The value for `O=C(NCc1[nH]nc2ccccc12)c1cccc(Cl)c1` was 805 s. `CCOC(=O)c1ccc(NC(=O)Cn2c(=O)c(CCC(=O)NC)nc3ccccc32)cc1` yielded an RP-LC retention time of 1260 s. Regarding `Cc1ccc(F)c(NC(=O)Cn2cc(-c3nnc(C)o3)ccc2=O)c1`, the RP-LC retention time came to 805 s.

For the compound `COc1cc(OC)cc(C(=O)N2CCC3(CC2)N=C(c2ccc(Br)cc2)C(=O)N3)c1`, the RP-LC retention time is 907 s. For `CNC(=O)CCc1cc2cc(C)ccc2[nH]c1=O`, the RP-LC retention time was 623 s.

Turning to `O=C(c1n[nH]c2c1CCCC2)N1CCC2(CC1)N=C(c1ccccc1)NO2`, the RP-LC retention time worked out at 698 s. Under `COc1ccc(-c2c(C)noc2NC(C)=O)cc1S(=O)(=O)Nc1cccc(SC)c1` stands 779 s; under `CCN1C(=O)c2cccnc2Sc2cc(NC(=O)c3ccc(F)cc3Cl)ccc21`, 852 s; under `CCOC(=O)c1cc2c([nH]c1=O)CC(c1ccc(C)cc1)CC2=O` (centres undefined), 780 s. On to `O=C(C1CCCO1)N1CCN(c2ccc(-n3cccn3)nn2)CC1` (centres undefined), for which the RP-LC retention time was 586 s. `NS(=O)(=O)c1ccc(CCNc2nnnc3c2cnn3-c2ccccc2)cc1` returned an RP-LC retention time of 814 s. In turn, `CCCN1N=C(C(=O)N2CCC(C)CC2)S(=O)(=O)c2ccc(C)cc21` registered an RP-LC retention time of 993 s.

In turn, `CCOc1ccccc1NC(=O)Cn1c(=O)c(CCC(=O)NCC(C)C)nc2ccccc21` gave an RP-LC retention time of 762 s.

As for `O=C(O)c1ccc(N2CCCC2)c(NC(=O)c2cccs2)c1`, the RP-LC retention time amounted to 710 s. `Cc1ccnc(N2CCCC(C(=O)NC3CCCCC3)C2)n1` (centres undefined) gave an RP-LC retention time of 709 s. Consider `O=C(Cc1csc(NC(=O)c2cnccn2)n1)Nc1cccc(C(F)(F)F)c1`, for which the RP-LC retention time was determined as 777 s. The compound `Cc1ccc(C)c(N2CCN(C(=O)C3CCN(C(=O)C4Sc5ccccc5NC4=O)CC3)CC2)c1` (centres undefined) returned an RP-LC retention time of 944 s. `Cc1ccc(NC(=O)Nc2ccc3nncn3c2)cc1F` returned an RP-LC retention time of 723 s.

The values are drawn from the METLIN SMRT retention time set (Domingo-Almenara et al. 2019).
